Measurements reported in the supplement of paper PMC10307832.

Legend:
Test in all cases: relative viability (nuclei count vs DMSO), 5 days (fraction); higher = more cells survive
Staurosporine + Olaparib = compound: CN[C@@H]1C[C@H]2O[C@@](C)([C@@H]1OC)n1c3ccccc3c3c4c(c5c6ccccc6n2c5c31)C(=O)NC4 [Staurosporine] + O=C(c1cc(Cc2n[nH]c(=O)c3ccccc23)ccc1F)N1CCN(C(=O)C2CC2)CC1 [Olaparib] (partner 8 µM)
Method in brief: (§1)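 The day after seeding in 1536-well plates, lung cancer cell lines were treated by pin tool with a single drug, or with a fixed anchor-drug dose together with five library-drug doses (not always all listed) in √10 steps. After 5 days, a combined fix-and-stain solution (final 0.05% Triton X-100, 1% formaldehyde, 1 ug/ml Hoechst) was added. Nuclei counted on 4× images gave relative viability as treated counts over vehicle counts, reported as the median of duplicate plates.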

[1] = compound: CN[C@@H]1C[C@H]2O[C@@](C)([C@@H]1OC)n1c3ccccc3c3c4c(c5c6ccccc6n2c5c31)C(=O)NC4 [Staurosporine] + CC(C)C[C@H](NC(=O)[C@H](Cc1ccccc1)NC(=O)c1cnccn1)B(O)O [Bortezomib] (partner 0.002 µM)
Method in brief: as §1

[2] = compound: O=c1[nH]cc(F)c(=O)[nH]1 [5-Fluorouracil] + C[C@@H](Oc1cc(-c2cnn(C3CCNCC3)c2)cnc1N)c1c(Cl)ccc(F)c1Cl [Crizotinib] (partner 1 µM)
Method in brief: as §1

[3] = compound: CN[C@@H]1C[C@H]2O[C@@](C)([C@@H]1OC)n1c3ccccc3c3c4c(c5c6ccccc6n2c5c31)C(=O)NC4 [Staurosporine] + N=C(N)NC(=N)NCCc1ccccc1 [Phenformin] (partner 250 µM)
Method in brief: as §1

Cell Line: UMC-11
- relative viability (Staurosporine + Olaparib; first compound 0.005 µM): 0.375
- relative viability (Staurosporine + Olaparib; first compound 0.01581 µM): 0.212
- relative viability (Staurosporine + Olaparib; first compound 0.05 µM): 0.154
- relative viability (Staurosporine + Olaparib; first compound 0.1581 µM): 0.0879
- relative viability (Staurosporine + Olaparib; first compound 0.5 µM): 0.0921
- relative viability ([1]; first compound 0.005 µM): 0.664
- relative viability ([1]; first compound 0.01581 µM): 0.131
- relative viability ([1]; first compound 0.05 µM): 0.454
- relative viability ([1]; first compound 0.1581 µM): 0.0878
- relative viability ([1]; first compound 0.5 µM): 0.0678
- relative viability ([2]; first compound 0.02 µM): 0.52
- relative viability ([2]; first compound 0.2 µM): 0.441
- relative viability ([2]; first compound 0.6325 µM): 0.303
- relative viability ([2]; first compound 2 µM): 0.232
- relative viability ([3]; first compound 0.005 µM): 0.305
- relative viability ([3]; first compound 0.01581 µM): 0.168
- relative viability ([3]; first compound 0.05 µM): 0.135
- relative viability ([3]; first compound 0.1581 µM): 0.0915
- relative viability ([3]; first compound 0.5 µM): 0.13
